Data published in patent publication US20060216693A1, “Method of screening compounds which inhibit the initiation of the retrotranscription of the rna of virus hiv-1 and means for implementing same” (priority 2003, published 2006).
Values joined by “and” are separate entries in the source; they are usually repeats but may differ in a detail not shown here. Equal values may be shown once.

Assays:
[1] = tested on: HIV-1 reverse transcriptase; details: 5 μM inhibitor, 5 μM each dNTP, 30 minute-reaction, 37° C.
[2] = tested on: HIV-1 reverse transcriptase; experiment: Synthesis of product corresponding to reverse transcription initiation (addition of first 6 nucleotides to biotinylated tRNAHis primer), scintillation proximity assay; type: biochemical; details: calculated
Description: FIG. 7: (−) Synthesis of a Product Corresponding to Retrotranscription Initiation from Biotinylated vRNA complex [His-AC-GAC]/tRNA^His
The signal attenuation is detected with […] of AZTTP. The numbers in bold and italic on the top of histograms corresponds to the percent of residual signal compared to the control without inhibitor.
Reactions are stopped by adding EDTA 25 mM and extension product detection is performed as previously described.

[3] = biological target: HIV-1 reverse transcriptase (Human immunodeficiency virus type 1 group M subtype B, UniProt P04585); details: selectivity measured in initiation and elongation (Rigourd and al., 2000); cited from earlier work

Row | Structure (SMILES) | inhibition rate of (−) strand strong-stop DNA synthesis [1] | Theoretical signal ([2]; [dTTP]/[AZTTP] = 2, selectivity (AZTTP/dTTP) = 0.6) [%] | Theoretical signal ([2]; [dTTP]/[AZTTP] = 2, selectivity (AZTTP/dTTP) = 0.7) [%] | Theoretical signal ([2]; [dTTP]/[AZTTP] = 50, selectivity (AZTTP/dTTP) = 0.6) [%] | Theoretical signal ([2]; [dTTP]/[AZTTP] = 50, selectivity (AZTTP/dTTP) = 0.7) [%] | AZTTP incorporation selectivity against dTTP [3]
1 | Cc1cn([C@H]2C=C[C@@H](COP(=O)(O)OP(=O)(O)OP(=O)(O)O)O2)c(=O)[nH]c1=O [d4TTP] | 80% | – | – | – | – | –
2 | Cc1cn([C@H]2C[C@H](N=[N+]=[N-])[C@@H](CO[P@](=O)(O)O[P@](=O)(O)OP(=O)(O)O)O2)c(=O)[nH]c1=O [AZTTP] | about 90% | 60.7 | 56.7 | 97.7 | 97.3 | 0.6 and 0.7
